According to US20040086901A1, “Database for analyzing gene function and method of analyzing gene function by dspa” (priority 2000, published 2004):

Tests used:
Assay type in all cases: cell-based, mouse
[1] = test system: NIH3T3 cells overexpressing cystatin alpha; assay: MTT cell viability, cystatin alpha overexpressing cells vs parental line; conditions: cystatin alpha high-expressing cells / parental cell line, 3 to 4 days
Protocol: (§1) With regard to the function-known genes, the genes shown in the left column of Table 2 were used. With regard to the drugs, those shown in Table 1 were dissolved in DMSO to an extent of 100-fold of the maximum concentration for the search of the drugs and used. With regard to the cells, incubated NIH3T3 or ras-NIH3T3 cells were used.
(§2) Full-length cDNA of each function-known genes was incorporated into an expression vector (pRc-CMV, etc.) and transfected into NIH3T3 cells by a common method. Transformed cells were isolated using the resistance to G-418 as an index and the expression of the transfected gene in each cell was investigated by Western blotting method to select a highly expressing line.
(§3) Cell viabilities were measured according to the following procedures.
(§4) 1) From the 2nd to the 11th rows of a 96-well plate were filled with DMEM (50 μl). The 12th row was filled with 100 μl of DMEM.
(§5) 2) The 1st row was filled with 98 μl of DMEM.
(§6) 3) Drugs (2 μl each) were added into the 1st row.
(§7) 4) Continuous double-dilution was conducted from the 1st to the 9th rows. Fifty μl were taken out from the 9th row and discarded. The plate was preserved in a CO2 incubator.
(§8) 5) Cells (each high-expressing cells and the parental cell line) were detached from the medium using a trypsin solution, suspended in 10% CS-DMEM and transferred to a test tube and cell numbers (cell/ml) were counted.
(§9) 6) The cells were diluted to a concentration of 1×10^5 cells/ml, and 50 μl of the cell suspension were added to the 1st to the 11th rows of the plate followed by gently stirring.
(§10) 7) The plate was transferred to the CO2 incubator and incubated for 3 to 4 days.
(§11) 8) MTT (5 mg/ml in PBS) (10 μl) was added to the 1st to the 12th rows of the plate and incubated in the CO2 incubator at 37° C. for 4 hours.
(§12) 9) A reaction stop solution (0.04N HCl in isopropanol) (150 μl) was added followed by mixing well and being allowed to stand at room temperature for about 2 hours.
(§13) 10) Coloration of formazan which was a metabolite of the MTT dye was measured using a microplate reader. The measurement wavelength was 574 nm and the reference wavelength was 655 nm. The 10th and the 11th rows of the plate were 100% controls and the 12th row was a 0% control.
(§14) As an index for the sensitivity of highly gene-expressing cells and the parental cell line to various drugs, each of the IC40 values thereof was specified and ratios of the IC40 values were calculated. FIG. 2 and FIG. 3 are the examples where ratios of IC40 values were calculated from a curve showing the dependency on the concentration of the chemical versus the viability. After that, logarithmic values of ratios of IC40 values were calculated from each gene.

[2] = test system: NIH3T3 cells overexpressing HNF1; assay: MTT cell viability, HNF1 overexpressing cells vs parental line; conditions: HNF1 high-expressing cells / parental cell line, 3 to 4 days
Protocol: as §1, §2, §3, §4, §5, §6, §7, §8, §9, §10, §11, §12, §13
(§15) As an index for the sensitivity of highly gene-expressing cells and the parental cell line to various drugs, each of the IC40 values thereof was specified and ratios of the IC40 values were calculated. […] After that, logarithmic values of ratios of IC40 values were calculated from each gene.

[3] = test system: NIH3T3 cells overexpressing caspase-2; assay: MTT cell viability, caspase-2 overexpressing cells vs parental line; conditions: caspase-2 high-expressing cells / parental cell line, 3 to 4 days
Protocol: as §1, §2, §3, §4, §5, §6, §7, §8, §9, §10, §11, §12, §13, §14

[4] = test system: NIH3T3 cells overexpressing PKCalpha-KN; assay: MTT cell viability, PKCalpha-KN overexpressing cells vs parental line; conditions: 3 to 4 days
Protocol: as §1, §2, §3, §4, §5, §6, §7, §8, §9, §10, §11, §12, §13, §15

[5] = test system: NIH3T3 cells overexpressing Ha-ras; assay: MTT cell viability, drug sensitivity of Ha-ras overexpressing cells vs parental line; conditions: Ha-ras high-expressing cells / parental cell line, 3 to 4 days
Protocol: as §1, §2, §3, §4, §5, §6, §7, §8, §9, §10, §11, §12, §13, §15

[6] = test system: NIH3T3 cells overexpressing CP-antisense; assay: MTT cell viability, CP-antisense cells vs parental line; conditions: 3 to 4 days
Protocol: as §1, §2, §3, §4, §5, §6, §7, §8, §9, §10, §11, §12, §13, §14

[7] = test system: NIH3T3 cells overexpressing HNF3b; assay: MTT cell viability, HNF3b overexpressing cells vs parental line; conditions: HNF3b high-expressing cells / parental cell line, 3 to 4 days
Protocol: as §1, §2, §3, §4, §5, §6, §7, §8, §9, §10, §11, §12, §13, §15

[8] = test system: NIH3T3 cells overexpressing p33/ING1; assay: MTT cell viability, p33/ING1 overexpressing cells vs parental line; conditions: p33/ING1 high-expressing cells / parental cell line, 3 to 4 days
Protocol: as §1, §2, §3, §4, §5, §6, §7, §8, §9, §10, §11, §12, §13, §14

[9] = test system: NIH3T3 cells overexpressing caspase-3; assay: MTT cell viability, caspase-3 overexpressing cells vs parental line; conditions: caspase-3 high-expressing cells / parental cell line, 3 to 4 days
Protocol: as §1, §2, §3, §4, §5, §6, §7, §8, §9, §10, §11, §12, §13, §15

[10] = test system: NIH3T3 cells overexpressing CaMKIIa; assay: MTT cell viability, CaMKIIa overexpressing cells vs parental line; conditions: CaMKIIa high-expressing cells / parental cell line, 3 to 4 days
Protocol: as §1, §2, §3, §4, §5, §6, §7, §8, §9, §10, §11, §12, §13, §15

[11] = test system: NIH3T3 cells overexpressing TK; assay: MTT cell viability, TK overexpressing cells vs parental line; conditions: TK high-expressing cells / parental cell line, 3 to 4 days
Protocol: as §1, §2, §3, §4, §5, §6, §7, §8, §9, §10, §11, §12, §13, §14

[12] = test system: NIH3T3 cells overexpressing erbB2; assay: MTT cell viability, erbB2 overexpressing cells vs parental line; conditions: erbB2 high-expressing cells / parental cell line, 3 to 4 days
Protocol: as §1, §2, §3, §4, §5, §6, §7, §8, §9, §10, §11, §12, §13, §14

[13] = test system: NIH3T3 cells overexpressing caspase-1; assay: MTT cell viability, caspase-1 overexpressing cells vs parental line; conditions: caspase-1 high-expressing cells / parental cell line, 3 to 4 days
Protocol: as §1, §2, §3, §4, §5, §6, §7, §8, §9, §10, §11, §12, §13, §15

[14] = test system: NIH3T3 cells overexpressing RhoA; assay: MTT cell viability, RhoA overexpressing cells vs parental line; conditions: RhoA high-expressing cells / parental cell line, 3 to 4 days
Protocol: as §1, §2, §3, §4, §5, §6, §7, §8, §9, §10, §11, §12, §13, §14

[15] = test system: NIH3T3 cells overexpressing v-src; assay: MTT cell viability, v-src overexpressing cells vs parental line; conditions: v-src high-expressing cells / parental cell line, 3 to 4 days
Protocol: as §1, §2, §3, §4, §5, §6, §7, §8, §9, §10, §11, §12, §13, §14

[16] = test system: NIH3T3 cells overexpressing coup; assay: MTT cell viability, coup overexpressing cells vs parental line; conditions: coup high-expressing cells / parental cell line, 3 to 4 days
Protocol: as §1, §2, §3, §4, §5, §6, §7, §8, §9, §10, §11, §12, §13, §14

[17] = test system: NIH3T3 cells overexpressing p38-DN; assay: MTT cell viability, p38-DN overexpressing cells vs parental line; conditions: p38-DN high-expressing cells / parental cell line, 3 to 4 days
Protocol: as §1, §2, §3, §4, §5, §6, §7, §8, §9, §10, §11, §12, §13, §15

[18] = test system: NIH3T3 cells overexpressing Regucalcin; assay: MTT cell viability, Regucalcin overexpressing cells vs parental line; conditions: Regucalcin high-expressing cells / parental cell line, 3 to 4 days
Protocol: as §1, §2, §3, §4, §5, §6, §7, §8, §9, §10, §11, §12, §13, §14

[19] = test system: NIH3T3 cells overexpressing DAN; assay: MTT cell viability, DAN overexpressing cells vs parental line; conditions: DAN high-expressing cells / parental cell line, 3 to 4 days
Protocol: as §1, §2, §3, §4, §5, §6, §7, §8, §9, §10, §11, §12, §13, §14

[20] = test system: NIH3T3 cells overexpressing cystatin E; assay: MTT cell viability, cystatin E overexpressing cells vs parental line; conditions: cystatin E high-expressing cells / parental cell line, 3 to 4 days
Protocol: as §1, §2, §3, §4, §5, §6, §7, §8, §9, §10, §11, §12, §13, §14

[21] = PKCalpha-KN (first of two lines) high-expressing cells / parental cell line
[22] = PKCalpha-KN (second of two lines) high-expressing cells / parental cell line

Row | SMILES | logarithmic value of ratio of IC40 values [1] | logarithmic value of ratio of IC40 values [2] | logarithmic value of ratio of IC40 values [3] | logarithmic value of ratio of IC40 values [4, 21] | logarithmic value of ratio of IC40 values [4, 22] | logarithmic value of ratio of IC40 values [5] | logarithmic value of ratio of IC40 values [6] | logarithmic value of ratio of IC40 values [7] | logarithmic value of ratio of IC40 values [8] | logarithmic value of ratio of IC40 values [9] | logarithmic value of ratio of IC40 values [10] | logarithmic value of ratio of IC40 values [11] | logarithmic value of ratio of IC40 values [12] | logarithmic value of ratio of IC40 values [13] | logarithmic value of ratio of IC40 values [14] | logarithmic value of ratio of IC40 values [15] | logarithmic value of ratio of IC40 values [16] | logarithmic value of ratio of IC40 values [18] | logarithmic value of ratio of IC40 values [19] | logarithmic value of ratio of IC40 values [20] | further results
1 | CC(=O)OCOC(=O)CN(CC(=O)OCOC(C)=O)c1ccccc1OCCOc1ccccc1N(CC(=O)OCOC(C)=O)CC(=O)OCOC(C)=O [BAPTA-AM] | 0.34 | 0.20 | 0.23 | 0.43 | −0.42 | −0.20 | 0.06 | −0.07 | 0.00 | 0.60 | −0.12 | 0.00 | −0.40 | 0.60 | 0.00 | −0.22 | 0.09 | −0.39 | 0.70 | −0.02 | logarithmic value of ratio of IC40 values [17]: 0.00
2 | CN[C@@H]1C[C@H]2O[C@@](C)([C@@H]1OC)n1c3ccccc3c3c4c(c5c6ccccc6n2c5c31)C(=O)NC4 [Staurosporine] | 0.30 |  | 0.18 |  |  | 0.30 | −0.15 |  | 0.62 |  | 0.12 | 0.46 | 0.04 | 0.22 | 0.15 | −0.05 | 0.08 | −0.09 | 0.48 | 0.40 | logarithmic value of ratio of IC40 values [17]: −0.05
3 | Nc1nc2nc[nH]c2c(=S)[nH]1 [6-TG, 6-thioguanine] | 0.60 | 0.46 | 0.18 | 0.26 | 0.38 | −0.19 | 0.14 | 0.03 | 0.46 | 1.16 | 0.00 | −0.17 | −0.12 |  | 0.69 | 0.00 | 0.45 | 0.20 | 0.64 | 0.00 | 
4 | CC(C)(C)C(=O)Oc1ccc(S(=O)(=O)Nc2ccccc2C(=O)NCC(=O)O)cc1 [compound 5046] |  | 0.05 | 0.51 | 0.10 | −0.05 |  | −0.06 | −0.25 | −0.25 | 0.40 |  | −0.24 | 0.80 | 0.40 | 0.11 | 0.51 | −0.04 | −0.38 | 0.26 | 0.36 | logarithmic value of ratio of IC40 values [17]: −0.04
